Results as given in patent publication US8765748B2, “Indazolyl, benzimidazolyl, benzotriazolyl substituted indolinone derivatives as kinase inhibitors useful in the treatment of cancer” (University Health Network, priority 2007, dated 2014).

Columns and labels:
Type in all cases: biochemical
PLK2 = target: T1, PLK2 (Homo sapiens, UniProt Q9NYY3); experiment: PLK2 Inhibition Assay (Z-Lyte); conditions: for inhibition at 10 µM: 10 μM compound, read-out: PLK2 relative inhibition percentage at a dose of 10 μM; for IC50: 60 μM ATP, 133 nM PLK2, read-out: PLK2 IC50 Ranges
T1 construct: purchased Invitrogen PV4204
T1 sequence (Q9NYY3 whole entry): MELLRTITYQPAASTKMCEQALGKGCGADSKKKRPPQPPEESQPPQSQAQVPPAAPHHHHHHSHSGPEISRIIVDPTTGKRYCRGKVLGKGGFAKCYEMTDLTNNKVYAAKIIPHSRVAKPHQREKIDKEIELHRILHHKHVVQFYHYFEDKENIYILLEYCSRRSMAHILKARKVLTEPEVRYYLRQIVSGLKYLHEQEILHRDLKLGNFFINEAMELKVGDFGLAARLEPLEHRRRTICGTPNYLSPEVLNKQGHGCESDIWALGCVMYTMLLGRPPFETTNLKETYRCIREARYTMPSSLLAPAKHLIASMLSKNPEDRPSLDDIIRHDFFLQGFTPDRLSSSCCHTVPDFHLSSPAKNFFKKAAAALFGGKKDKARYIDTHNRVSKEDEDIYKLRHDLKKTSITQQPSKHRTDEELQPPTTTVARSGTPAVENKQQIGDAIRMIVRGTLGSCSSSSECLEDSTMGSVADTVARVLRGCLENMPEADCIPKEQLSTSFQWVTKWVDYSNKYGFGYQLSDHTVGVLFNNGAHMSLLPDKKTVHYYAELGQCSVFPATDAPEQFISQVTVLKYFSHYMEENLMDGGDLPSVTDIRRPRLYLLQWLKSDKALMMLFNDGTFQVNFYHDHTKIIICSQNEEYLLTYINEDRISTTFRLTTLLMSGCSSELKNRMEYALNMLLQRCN
Description: (§1) PLK2 inhibition was determined using the Z-Lyte assay kit from Invitrogen (cat #PV3802). The assay was performed using the recommended manufacturer's instructions with 60 μM ATP and 133 nM PLK2 (Invitrogen cat #PV4204). The % inhibition values were determined according to the manufacturer's directions and IC50 values were obtained using a non-linear 4 point logistic curve fit (XLfit4, IDBS)

human PLK4 = target: T2, human PLK4 (Homo sapiens, UniProt O00444); experiment: PLK4 Inhibition Assay (indirect ELISA); conditions: 15 μM ATP, 4 nM GST-PLK4; read-out: PLK4 IC50 Ranges
T2 construct: amino terminal GST fusion of residues 1-391 of human PLK4; made in house; host or cells: E. coli
T2 sequence (O00444 1-391): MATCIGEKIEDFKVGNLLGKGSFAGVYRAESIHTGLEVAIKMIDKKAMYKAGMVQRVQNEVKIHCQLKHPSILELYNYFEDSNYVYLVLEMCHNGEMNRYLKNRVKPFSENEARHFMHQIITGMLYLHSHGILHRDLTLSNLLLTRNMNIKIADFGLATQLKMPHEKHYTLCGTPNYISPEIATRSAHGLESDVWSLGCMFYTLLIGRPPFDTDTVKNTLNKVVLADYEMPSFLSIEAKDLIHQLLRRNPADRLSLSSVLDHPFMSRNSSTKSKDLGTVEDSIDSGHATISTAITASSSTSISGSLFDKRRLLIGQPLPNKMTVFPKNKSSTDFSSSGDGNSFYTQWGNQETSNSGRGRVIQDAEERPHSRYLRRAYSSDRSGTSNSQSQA
Outline: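 IC50 values, from 4-point logistic fitting, reflect remaining activity measured by indirect ELISA. Enzyme was GST-PLK4 treated with lambda phosphatase and given a 15-minute pre-incubation with compound before ATP start.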

PLK1 = target: T3, PLK1 (Homo sapiens, UniProt P53350); experiment: PLK1 Inhibition Assay (Z-Lyte); conditions: for inhibition at 10 µM: 10 μM compound, read-out: PLK1 relative inhibition percentage at a dose of 10 μM; for IC50: 25 μM ATP, 8 nM PLK1, read-out: PLK1 IC50 Ranges
T3 construct: purchased Invitrogen PV3501
T3 sequence (P53350 whole entry): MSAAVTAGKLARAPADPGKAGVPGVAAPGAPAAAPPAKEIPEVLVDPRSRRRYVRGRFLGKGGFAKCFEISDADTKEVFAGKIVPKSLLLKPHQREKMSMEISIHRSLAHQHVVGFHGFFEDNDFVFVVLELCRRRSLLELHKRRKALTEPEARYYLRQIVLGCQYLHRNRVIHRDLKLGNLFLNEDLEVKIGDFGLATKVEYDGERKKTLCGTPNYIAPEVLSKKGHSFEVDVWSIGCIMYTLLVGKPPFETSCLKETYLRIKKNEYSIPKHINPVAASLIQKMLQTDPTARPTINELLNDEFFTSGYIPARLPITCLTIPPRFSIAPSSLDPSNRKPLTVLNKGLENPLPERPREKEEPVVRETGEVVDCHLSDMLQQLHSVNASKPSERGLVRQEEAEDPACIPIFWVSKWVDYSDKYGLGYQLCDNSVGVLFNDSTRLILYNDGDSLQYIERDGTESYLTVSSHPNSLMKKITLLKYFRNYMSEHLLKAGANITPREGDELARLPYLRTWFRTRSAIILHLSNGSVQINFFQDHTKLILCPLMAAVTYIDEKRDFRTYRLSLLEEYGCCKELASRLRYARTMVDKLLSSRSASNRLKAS
Description: PLK1 inhibition was determined using the Z-Lyte assay kit from Invitrogen (cat #PV3802). […] The % inhibition values were determined according to the manufacturer's directions and IC50 values were obtained using a non-linear 4 point logistic curve fit (XLfit4, IDBS)

Aurora A = target: T4, Aurora A (Homo sapiens, UniProt O14965); experiment: Aurora A Inhibition Assay (Z-Lyte); conditions: for IC50: 20 μM ATP, 12 nM Aurora A, read-out: Aurora A IC50 Ranges; for inhibition at 10 µM: 10 μM compound, read-out: Aurora A relative inhibition percentage at a dose of 10 μM
T4 construct: purchased Invitrogen PV3612
T4 sequence (O14965 1-403): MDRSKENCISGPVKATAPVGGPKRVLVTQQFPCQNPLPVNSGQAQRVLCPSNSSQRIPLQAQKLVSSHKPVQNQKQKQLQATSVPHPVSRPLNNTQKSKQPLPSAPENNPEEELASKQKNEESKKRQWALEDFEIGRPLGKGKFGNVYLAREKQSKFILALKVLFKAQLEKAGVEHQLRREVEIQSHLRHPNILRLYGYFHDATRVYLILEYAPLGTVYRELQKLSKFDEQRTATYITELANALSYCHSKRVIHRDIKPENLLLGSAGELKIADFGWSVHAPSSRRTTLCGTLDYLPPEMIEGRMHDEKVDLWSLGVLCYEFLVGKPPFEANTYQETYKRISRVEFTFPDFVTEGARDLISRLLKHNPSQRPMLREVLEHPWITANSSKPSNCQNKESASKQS
Description: as §1, with “Aurora A” for “PLK2”, “Invitrogen.” for “Invitrogen (cat #PV3802).”, “20” for “60”, “12” for “133”, “#PV3612).” for “#PV4204).”

Aurora B = target: T5, Aurora B (Homo sapiens, UniProt Q96GD4); experiment: Aurora B Inhibition Assay (Z-Lyte); conditions: for IC50: 128 μM ATP, 28 nM Aurora B, read-out: Aurora B IC50 Ranges; for inhibition at 10 µM: 10 μM compound, read-out: Aurora B relative inhibition percentage at a dose of 10 μM
T5 construct: purchased Invitrogen PV3970
T5 sequence (Q96GD4 whole entry): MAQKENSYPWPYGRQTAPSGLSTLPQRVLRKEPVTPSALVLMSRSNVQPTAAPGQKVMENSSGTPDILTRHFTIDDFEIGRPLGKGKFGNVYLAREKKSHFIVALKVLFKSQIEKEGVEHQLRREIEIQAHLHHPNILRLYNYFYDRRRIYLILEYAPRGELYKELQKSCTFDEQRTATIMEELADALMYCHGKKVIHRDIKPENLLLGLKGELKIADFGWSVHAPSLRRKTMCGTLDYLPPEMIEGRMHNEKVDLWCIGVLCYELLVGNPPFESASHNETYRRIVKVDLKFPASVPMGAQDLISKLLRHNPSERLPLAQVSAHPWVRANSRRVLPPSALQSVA
Description: as §1, with “Aurora B” for “PLK2”, “Invitrogen.” for “Invitrogen (cat #PV3802).”, “128” for “60”, “28” for “133”, “#PV3970).” for “#PV4204).”

| SMILES | inhibition at 10 µM (PLK2) [%] | IC50 (human PLK4) [µM] | inhibition at 10 µM (PLK1) [%] | IC50 (Aurora A) [µM] | IC50 (Aurora B) [µM] | IC50 (PLK2) [µM] | IC50 (PLK1) [µM] | inhibition at 10 µM (Aurora A) [%] | inhibition at 10 µM (Aurora B) [%] |
| --- | --- | --- | --- | --- | --- | --- | --- | --- | --- |
| CC(=O)Nc1cccc2c1NC(=O)/C2=C/c1ccc2c(/C=C/c3ccncc3)n[nH]c2c1 [Example A120, N-((E)-2-oxo-3-((3-((E)-2-(pyridin-4-yl)vinyl)-1H-indazol-6-yl)-methylene)indolin-7-yl)acetamide] | < 50 | < 5 | < 50 | < 5 | < 5 |  |  |  |  |
| O=C1Nc2ccc(F)cc2/C1=C\c1ccc2cn[nH]c2c1 [Example A16, (E)-3-((1H-indazol-6-yl)methylene)-5-fluoroindolin-2-one] |  | < 5 |  | < 5 | < 5 | < 5 | 5 to 50 |  |  |
| COc1ccc2c(c1)C(=Cc1ccc3c(/C=C/C(=O)N4CCN(C)CC4)n[nH]c3c1)C(=O)N2 (mixture of isomers) [Example A118, (E and Z)-5-methoxy-3-((3-((E)-3-(4-methylpiperazin-1-yl)-3-oxoprop-1-enyl)-1H-indazol-6-yl)methylene)indolin-2-one] | < 50 | < 5 | < 50 | < 5 | < 5 |  |  |  |  |
| O=C1Nc2ccccc2C1=Cc1ccc2c(/C=C/c3cnccn3)n[nH]c2c1 (mixture of isomers) [Example A104, (E and Z)-3-((3-((E)-2-(pyrazin-2-yl)vinyl)-1H-indazol-6-yl)methylene)-indolin-2-one] | < 50 | < 5 | < 50 | < 5 | < 5 |  |  |  |  |
| O=C1Nc2ccc(C(=O)Nc3ccccc3)cc2/C1=C\c1ccc2cn[nH]c2c1 [Example A11, (E)-3-((1H-indazol-6-yl)methylene)-2-oxo-N-phenylindoline-5-carboxamide] | < 50 | < 5 |  |  |  |  | > 50 | > 50 | > 50 |
| O=C1Nc2ncccc2C1=Cc1ccc2c(/C=C/c3cccnc3)n[nH]c2c1 (mixture of isomers) [Example A114, (E and Z)-3-((3-((E)-2-(pyridin-3-yl)vinyl)-1H-indazol-6-yl)methylene)-1H-pyrrolo[2,3-b]pyridin-2(3H)-one] | < 50 | < 5 | < 50 | < 5 | < 5 |  |  |  |  |
| O=C1Nc2ccc(Br)cc2/C1=C\c1ccc2cn[nH]c2c1 [Example A35, (E)-3-((1H-indazol-6-yl)methylene)-5-bromoindolin-2-one] | < 50 | < 5 |  |  | < 5 |  | > 50 | < 50 |  |
| O=C1Nc2ccccc2/C1=C\c1ccc2c(/C=C/c3cccnc3)n[nH]c2c1 [Example A113, (E)-3-((3-((E)-2-(pyridin-3-yl)vinyl)-1H-indazol-6-yl)methylene)-indolin-2-one] | < 50 | < 5 | < 50 | < 5 | < 5 |  |  |  |  |

The next lines start with the values.

| inhibition at 10 µM (PLK2) [%] | IC50 (human PLK4) [µM] | inhibition at 10 µM (PLK1) [%] | IC50 (Aurora A) [µM] | IC50 (Aurora B) [µM] | IC50 (PLK2) [µM] | IC50 (PLK1) [µM] | inhibition at 10 µM (Aurora A) [%] | inhibition at 10 µM (Aurora B) [%] | SMILES |
| --- | --- | --- | --- | --- | --- | --- | --- | --- | --- |
| < 50 | < 5 | < 50 | < 5 | < 5 |  |  |  |  | Cc1ccc2c(c1)C(=Cc1ccc3cn[nH]c3c1)C(=O)N2 (mixture of isomers) [Example A81, (E and Z)-3-((1H-indazol-6-yl)methylene)-5-methylindolin-2-one] |
| < 50 | < 5 | < 50 | < 5 | < 5 |  |  |  |  | COc1ccc2c(c1)/C(=C\c1ccc3c(/C=C/c4ccncc4Cl)n[nH]c3c1)C(=O)N2 [Example A119, (E)-3-((3-((E)-2-(3-chloropyridin-4-yl)vinyl)-1H-indazol-6-yl)methyl-ene)-5-methoxyindolin-2-one] |
| < 50 | < 5 | < 50 | < 5 | < 5 |  |  |  |  | O=C1Nc2ccccc2C1=Cc1ccc2c(-c3ccc[nH]3)n[nH]c2c1 (mixture of isomers) [Example A89, (E and Z)-3-((3-(1H-pyrrol-2-yl)-1H-indazol-6-yl)methylene)indolin-2-one] |
| < 50 | < 5 | < 50 | > 50 | < 5 |  |  |  |  | O=C1Nc2ccc(Cl)cc2C1=Cc1ccc2c(-c3cccnc3)n[nH]c2c1 (mixture of isomers) [Example A94, (E and Z)-5-chloro-3-((3-(pyridin-3-yl)-1H-indazol-6-yl)methylene)-indolin-2-one] |
| < 50 | < 5 |  | > 50 | < 5 |  | 5 to 50 |  |  | O=C1Nc2cc(Cl)ccc2/C1=C\c1ccc2cn[nH]c2c1 [Example A36, (E)-3-((1H-indazol-6-yl)methylene)-6-chloroindolin-2-one] |
| < 50 | < 5 | < 50 |  | < 5 |  |  | > 50 |  | O=C1Nc2ccccc2C1=Cc1ccc2c(CCc3ccncc3)n[nH]c2c1 (mixture of isomers) [Example A64, (E and Z)-3-((3-(2-(pyridin-4-yl)ethyl)-1H-indazol-6-yl)methylene)-indolin-2-one] |
| > 50 | < 5 |  | < 5 | < 5 |  | > 50 |  |  | O=C1Nc2c(F)cccc2/C1=C\c1ccc2cn[nH]c2c1 [Example A42, (E)-3-((1H-indazol-6-yl)methylene)-7-fluoroindolin-2-one] |
|  | < 5 |  | < 5 | < 5 | < 5 | > 50 |  |  | Nc1cccc2c1NC(=O)/C2=C/c1ccc2cn[nH]c2c1 [Example A56, (E)-3-((1H-indazol-6-yl)methylene)-7-aminoindolin-2-one] |
| < 50 | < 5 |  |  |  |  | 5 to 50 | > 50 | < 50 | CC(=O)Nc1ccc2c(c1)NC(=O)/C2=C/c1ccc2cn[nH]c2c1 [Example A13, (E)-N-(3-((1H-indazol-6-yl)methylene)-2-oxoindolin-6-yl)acetamide] |
| < 50 | < 5 | < 50 |  | < 5 |  |  | > 50 |  | COc1ccc2c(c1)/C(=C\c1ccc3c(/C=C/c4ccncc4)n[nH]c3c1)C(=O)N2 [Example A86, (E)-5-methoxy-3-((3-((E)-2-(pyridin-4-yl)vinyl)-1H-indazol-6-yl)methylene)indolin-2-one] |
| < 50 | < 5 | < 50 | < 5 | < 5 |  |  |  |  | Cc1ccc2c(c1)/C(=C\c1ccc3c(/C=C/c4ccncc4)n[nH]c3c1)C(=O)N2 [Example A85, (E)-5-methyl-3-((3-((E)-2-(pyridin-4-yl)vinyl)-1H-indazol-6-yl)methylene)indolin-2-one] |
